# Experimental data reported in publication PMC9959096, “Selective α3β4 Nicotinic Acetylcholine Receptor Ligand as a Potential Tracer for Drug Addiction” (International Journal of Molecular Sciences, 2023).
# Read-outs that look alike come from different tables or passages of the source.
# Tests used:
# human α3β4 nAChR [1] = target: T1, human α3β4 nAChR (Homo sapiens, UniProt P30926+P32297); assay: Competitive radioligand displacement binding assay, membranes of HEK293 cells stably transfected with human α3β4 nAChR; details: for Selectivity Ratios α4β2/α3β4 / Selectivity Ratios α7/α3β4: ratio of Ki values; for Selectivity Ratios α7/α3β4: given as fold
# T1 construct: expressed in transfected cells
# human α7 nAChR [2] = target: T2, human α7 nAChR (Homo sapiens, UniProt P36544); assay: Radioligand displacement binding assay, membranes of SH-SY5Y cells stably transfected with human α7 nAChR; details: for Selectivity Ratios α4β2/α7: ratio of Ki values
# T2 construct: expressed in transfected cells
# human α4β2 nAChR = target: T3, human α4β2 nAChR (Homo sapiens, UniProt P17787+P43681); assay: Competitive radioligand displacement binding assay, membranes of HEK293 cells stably transfected with human α4β2 nAChR
# T3 construct: expressed in transfected cells
# human α3β4 nAChR [3] = target: T1, human α3β4 nAChR; details: cited from earlier work; for Selectivity Ratios α4β2/α3β4 / Selectivity Ratios α7/α3β4: lead compounds, ratio of Ki values
# human α7 nAChR [4] = target: T2, human α7 nAChR; parameters: method as in PMID 27774124; details: lead compounds, ratio of Ki values; cited from earlier work
# [5] = SH-SY5Y membranes, [3H]methyllycaconitine ~0.5 nM per table footnote, mean of two independent experiments, single values in brackets, read-out: Binding Affinity Ki α7
Compound,Ki (human α3β4 nAChR [1]) [µM],Selectivity Ratios α4β2/α3β4 (human α3β4 nAChR [1]),Selectivity Ratios α7/α3β4 (human α3β4 nAChR [1]),Ki (human α7 nAChR [2]; [5]) [µM],Selectivity Ratios α4β2/α7 (human α7 nAChR [2]),Ki (human α4β2 nAChR) [µM],melting point,Selectivity Ratios α4β2/α3β4 (human α3β4 nAChR [3]),Selectivity Ratios α7/α3β4 (human α3β4 nAChR [3]),Selectivity Ratios α4β2/α7 (human α7 nAChR [4]),Ki (human α7 nAChR [2]) [µM],Ki (human α3β4 nAChR [3]; selective α3β4 nAChR ligands) [µM]
"Fc1cc(-c2cn([C@H]3CN4CCC3CC4)nn2)ccc1OCc1ccccc1 [AK4, (1S,3R,4S)-3-(4-(4-(Benzyloxy)-3-fluorophenyl)-1H-1,2,3-triazol-1-yl)quinuclidine]",0.112,37.3,0.48,0.0536,77.9,4.18,180 to 181 °C,,,,,
Fc1cccc(-c2cn([C@@H]3CN4CCC3CC4)nn2)c1 [(S)-T2],,,,,,,,231,294,0.79,,
"Fc1cc(-c2cn([C@@H]3CN4CCC3CC4)nn2)ccc1OCc1ccccc1 [AK3, (1R,3S,4R)-3-(4-(4-(Benzyloxy)-3-fluorophenyl)-1H-1,2,3-triazol-1-yl)quinuclidine]",0.00318,56.6,3069,,0.02,0.18,173 to 175 °C,,,,9.76,
"Oc1ccc(-c2cn([C@@H]3CN4CCC3CC4)nn2)cc1F [AK1, 2-Fluoro-4-(1-((1R,3S,4R)-quinuclidin-3-yl)-1H-1,2,3-triazol-4-yl)phenol]",0.00228,221,11.7,0.0267,18.9,0.504,258 °C (dec.),,,,,
Oc1ccc(-c2cn([C@@H]3CN4CCC3CC4)nn2)cc1 [(S)-QND8],,,,,,,,186,11.8,15.7,,
Fc1ccc(-c2cn([C@@H]3CN4CCC3CC4)nn2)cc1 [(S)-T1],,,,,,,,,,,,< 0.01
"Oc1ccc(-c2cn([C@H]3CN4CCC3CC4)nn2)cc1F [AK2, 2-Fluoro-4-(1-((1S,3R,4S)-quinuclidin-3-yl)-1H-1,2,3-triazol-4-yl)phenol]",0.601,9.95,0.01,0.00449,1331,5.98,275 °C (dec.),,,,,
